Laboratory results published in patent US11161907B2, “Car-expressing cells against multiple tumor antigens and uses thereof” (Novartis AG, priority 2015, dated 2021).
“Also recorded” adds a separate entry of the source. Read-outs that look alike come from different tables or passages of the source.

Tests used:
[1] = system: huCART19 cells co-cultured with Nalm-6; test: 4 day co-culture proliferation assay of CARTs with RAD001; assay type: cell-based, human
Experimental: To evaluate the functionality of CARTs, the T cells are thawed and counted, and viability is assessed by Cellometer. The number of CAR-positive cells in each culture is normalized using non-transduced T cells (UTD). The impact of RAD001 on CARTs was tested in titrations with RAD001, starting at 50 nM. The target cell line used in all co-culture experiments is Nalm-6, a human pre-B cell acute lymphoblastic leukemia (ALL) cell line expressing CD19 and transduced to express luciferase.
For measuring the proliferation of CARTs, T cells are cultured with target cells at a ratio of 1:1. The assay is run for 4 days, when cells are stained for CD3, CD4, CD8 and CAR expression. The number of T cells is assessed by flow cytometry using counting beads as reference.

NALM6-luc tumors = test: NALM6-luc tumor growth with daily oral RAD001; assay type: in vivo, NSG mice; conditions: daily oral dosing of RAD001 alone, 0.3-10 mg/kg
Experimental: NALM6-luc cells were grown and expanded in vitro in RPMI supplemented with 10% heat inactivated fetal bovine serum. The cells were then transferred to a 15 ml conical tube and washed twice with cold sterile PBS. NALM6-luc cells were then counted and resuspended at a concentration of 10×10^6 cells per milliliter of PBS. The cells were placed on ice and immediately (within one hour) implanted in the mice. NALM6-luc cells were injected intravenously via the tail vein in a 100 μl volume, for a total of 1×10^6 cells per mouse.
(§1) A concentrated micro-emulsion of 50 mg equal to 1 mg RAD001 was formulated and then resuspended in D5W (dextrose 5% in water) at the time of dosing. Mice were orally dosed daily (via oral gavage) with 200 μl of the desired doses of RAD001. PK analysis: Mice were dosed daily with RAD001 starting 7 days post tumor implantation. Dosing groups were as follows: 0.3 mg/kg, 1 mg/kg, 3 mg/kg, and 10 mg/kg. Mice were bled on days 0 and 14 following the first and last dose of RAD001, at the following time points for PK analysis: 15 minutes, 30 minutes, 1 hour, 2 hours, 4 hours, 8 hours, 12 hours, and 24 hours.

[2] = RAD001 pharmacokinetic analysis in blood of tumor bearing mice; assay type: in vivo, NSG mice; conditions: for concentration at 24 h: NSG, mouse, whole blood
Experimental: as §1

[3] = system: humanized CD19 CAR T cells; test: In vivo proliferation of huCAR19 CAR T cells with and without RAD001 (FACS); parameters: species or system NSG mice
Experimental: Mice were administered 5×10^6 CAR T cells 7 days after tumor implantation. Cells were partially thawed in a 37 degree Celsius water bath and then completely thawed by the addition of 1 ml of cold sterile PBS to the tube containing the cells. The thawed cells were transferred to a 15 ml falcon tube and adjusted to a final volume of 10 mls with PBS. The cells were washed twice at 1000 rpm for 10 minutes each time and then counted on a hemocytometer. T cells were then resuspended at a concentration of 50×10^6 CAR T cells per ml of cold PBS and kept on ice until the mice were dosed. The mice were injected intravenously via the tail vein with 100 μl of the CAR T cells for a dose of 5×10^6 CAR T cells per mouse. Eight mice per group were treated either with 100 μl of PBS alone (PBS), or humanized CD19 CAR T cells.
as §1, with “Mice were bled on days 0 and 14 following the first and last dose of RAD001, at the following time points for PK analysis: 15 minutes, 30 minutes, 1 hour, 2 hours, 4 hours, 8 hours, 12 hours, and 24 hours.” left out
Based on these doses, huCAR19 CAR T cells were dosed with and without RAD001 to determine the proliferative ability of these cells. […] Mice were monitored via FACS for T cell expansion.

[4] = system: subcutaneous SKOV3 tumors; test: Established subcutaneous SKOV3 xenograft model of ovarian cancer; assay type: in vivo, NSG mice; conditions: 3 weeks following adoptive transfer, versus UNT and CD19-27z groups
Description: All animals were obtained from the Stem Cell and Xenograft Core of the Abramson Cancer Center, University of Pennsylvania. Six to 12-week-old NOD/SCID/γ-chain−/− (NSG) mice were bred, treated and maintained under pathogen-free conditions in-house under University of Pennsylvania IACUC approved protocols. For an established ovarian cancer model, 6 to 12-week-old female NSG mice were inoculated s.c. with 3×10^6 SKOV3 fLuc+ cells on the flank on day 0. After tumors become palpable at about 1 month, human primary T cell (CD4+ and CD8+ T cells used were mixed at 1:1 ratio) were activated, and transduced as described above. After 2 weeks T cell expansion, when the tumor burden was ˜200-300 mm^3, mice were treated with T cells. The route, dose, and timing of T-cell injections is indicated in the individual figure legends. Tumor dimensions were measured with calipers, and tumor volumes calculated using the formula V=½(length×width^2), where length is greatest longitudinal diameter and width is greatest transverse diameter. […] Photon emission from fLuc+ cells was quantified using the “Living Image” software (Xenogen) for all in vivo experiments. […]
Tumor growth was also monitored by Bioluminescent imaging (BLI). BLI was done using Xenogen IVIS imaging system and the photons emitted from fLuc-expressing cells within the animal body were quantified using Living Image software (Xenogen). […]

FRA = FRA (Homo sapiens, UniProt P15328); conditions: cited from earlier work
Sequence of FRA (P15328 25-234): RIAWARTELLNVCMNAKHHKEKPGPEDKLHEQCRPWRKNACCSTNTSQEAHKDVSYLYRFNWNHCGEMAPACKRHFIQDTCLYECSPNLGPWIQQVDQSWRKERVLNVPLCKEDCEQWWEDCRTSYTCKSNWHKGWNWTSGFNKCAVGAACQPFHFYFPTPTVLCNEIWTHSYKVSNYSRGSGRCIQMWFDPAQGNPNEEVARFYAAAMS

For `CO[C@H]1C[C@@H]2CC[C@@H](C)[C@@](O)(O2)C(=O)C(=O)N2CCCC[C@H]2C(=O)O[C@H]([C@H](C)C[C@@H]2CC[C@@H](OCCO)[C@H](OC)C2)CC(=O)[C@H](C)/C=C(\C)[C@@H](O)[C@@H](OC)C(=O)[C@H](C)C[C@H](C)/C=C/C=C/C=C/1C` [RAD001, (1R,9S,12S,15R,16E,18R,19R,21R,23S,24E,26E,28E,30S,32S,35R)-1,18-dihydroxy-12-{(1R)-2-[(1S,3R,4R)-4-(2-hydroxyethoxy)-3-methoxycyclohexyl]-1-methylethyl}-19,30-dimethoxy-15,17,21,23,29,35-hexamethyl-11,36-dioxa-4-aza-tricyclo[30.3.1.04,9]hexatriaconta-16,24,26,28-tetraene-2,3,10,14,20-pentaone], the “proliferation of huCART19 cells” value ([1]; 0.0032 and 0.016 nM RAD001) was “higher than observed without the addition of RAD001”, the “RAD001 concentration at which huCART19 cells expanded” value ([1]; 4 day co-culture with Nalm-6, 1:1) was “less than 0.016 nM” and the “impact on the growth of NALM6-luc tumors” value (NALM6-luc tumors) was “did not have an impact”. For the same molecule, the concentration at 24 h ([2]; oral, 0.3 mg/kg, 24 hours after the final dose, read-out: concentration of RAD001) was greater than 10 nM, the concentration at 24 h ([2]; day 0 PK, 24 hours after dosing, 0.3 mg/kg oral, read-out: RAD001 concentration in the blood) was greater than 10 nM and the “RAD001 concentration in the blood” value ([2]; day 14 PK, 24 hours after dosing, 0.3 mg/kg oral) was “above 10 nm”. For the same molecule, the “stability in the blood” value ([2]; tumor bearing mice) was “fairly stable”, the “CAR T cell proliferation in vivo” value ([3]; 0.003 mg/kg RAD001 daily) was “enhancement in CAR T cell proliferation” and the “proliferation of the CAR T cells in vivo” value ([3]; lowest doses of RAD001, daily oral) was “enhanced proliferation”.

B1: C4: fully human anti-FRA scFv/Fab fragment, scFv SEQ ID NO: 98 (protein)
scFv: QLVESGGGLVQPGRSLRLSCTTSGFTFGDYAMIWARQAPGKGLEWVSSISSSSSYIYYADSVKGRFTISRDNAKNSLYLQMNSLRAEDTAVYYCARERYDFWSGMDVWGKGTTVTVSSGGGGSGGGGSGGSAQSALTQPASVSGSPGQSITISCTGTSSDVGSYNLVSWYQQHPGKAPKLMIYEGSKRPSGVSNRFSGSKSGNAASLTISGLQAEDEADYYCQSYDSSLSVVFGGGTKLTVLG
In the case of B1, the “persistence of transferred T-cells in the peripheral blood” value [4] is given as “higher numbers of CD4+ and CD8+ T cells” and the “binding affinity relative to murine MOv19” value (FRA) is given as “approximately five-fold less; also recorded: approximately five-fold weaker”.
